From US20260345798A1, “COMPOUNDS AND METHODS OF USE THEREOF” (Virginia Commonwealth University, priority 2023, published 2026) come the findings set out here.

Usually Kd stands for the equilibrium constant for the complex coming apart.

Residues, ends and D or L forms follow the SMILES beside them.

One experiment concerns the target T1, MDA-9/Syntenin (Homo sapiens, UniProt O00560).
T1 sequence (O00560 1-298): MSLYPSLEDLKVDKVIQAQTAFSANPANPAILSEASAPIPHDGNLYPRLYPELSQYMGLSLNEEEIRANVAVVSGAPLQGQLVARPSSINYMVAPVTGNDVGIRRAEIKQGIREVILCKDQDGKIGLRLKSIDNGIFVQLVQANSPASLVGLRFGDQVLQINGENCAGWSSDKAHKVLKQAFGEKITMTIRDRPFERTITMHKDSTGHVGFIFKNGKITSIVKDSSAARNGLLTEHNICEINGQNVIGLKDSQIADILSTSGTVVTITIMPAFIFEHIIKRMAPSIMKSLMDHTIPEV
Put plainly: Microscale thermophoresis (MST) binding affinity. The settings on record: His-tagged recombinant MDA-9/Syntenin 175 nM, PBS-T pH 7.4, 25 °C, ± S.E., read-out: dissociation constant (KD). As for the experimental part:
FIG. 1C is a binding curve of IVMT-Rx-3 bound to MDA-9/Syntenin. The binding constant Ka was measured from the binding curve generated through a microscale thermophoresis (MST) assay.
Binding affinity was measured using microscale thermophoresis (MST) experiments performed on a Monolith NT. Automated instrument (NanoTemper Technologies GmbH, Munich, Germany). His-tagged MDA-9/Syntenin was first labeled with RED-tris-NTA (λEX-650 nm, λEM=670 nm; Cat #MO-LO18) according to the manufacturer's protocol. Briefly, 700 nM MDA-9 in 100 mM phosphate-buffered saline, pH 7.4, containing 0.05% Tween 20 (PBS-T) was added to an equal volume of 100 nM RED-tris-NTA in PBS-T and the mixture was incubated at room temperature for 30 min, centrifuged at 15,000 g for 10 min at 4 °C, and the supernatant containing the labeled protein was transferred to a new tube for use in affinity measurements. […] After a 10-min incubation, the samples were loaded into premium capillary chips and thermophoretic measurements were performed (25 °C, 27% excitation power, medium MST power, 20 s laser on) to follow changes in normalized fluorescence (Fnorm) at different IVMT-Rx-3 concentrations (FIG. 1C). These changes were analyzed using the standard hyperbolic binding isotherm (SigmaPlot) to obtain the affinity of IVMT-Rx-3 for MDA-9/Syntenin. […]

For experiment [1], the system named is X11/mint scaffold protein. The experiment can be described thus: Binding to other PDZ domains: X11/mint. As to conditions: 33% identity with PDZ1.
In experiment [2] the test system is MDA-9/Syntenin: Src signaling pathways in melanoma cell lines. The experiment can be described thus: Western blotting of signaling proteins, other melanoma cell lines. The settings on record: various melanoma cell lines; Western blot FIG. 12. In kind it is cell-based, human. The procedure: FIG. 12 is a Western blot of different signaling molecules as indicated for indicated cell lines treated with IVMT-Rx-3 at varying concentrations.
Western blotting was performed following a standard protocol as described previously (6,8,18,29). Antibodies used in this study were purchased from Cell Signaling Technology (Boston, MA): p-Src (Y416), total Src, matrix metalloproteinase-2 (MMP-2) and matrix metaloproteinase-9 (MMP-9), focal adhesion kinase (FAK), p IKKα/β (S176/180), total IKK, p P38 (T180/Y182) and total P38. MDA-9/Syntenin antibody was obtained from Abnova Inc. (Taiwan). β-actin (Sigma-Aldrich, St. Louis, MO) was used as an endogenous loading control. Fibronectin was purchased from EMD Millipore (Billerica, MA).
Background: Immunoblotting shows a protein as a band on a membrane.

Another experiment concerns MMP-2 and MMP-9. The experiment can be described thus: MMP-2 and MMP-9 mRNA by qPCR, B16 cells. The settings on record: B16 mouse melanoma cells. The experiment is classed as cell-based. As for the experimental part:
FIG. 13C is a series of histograms showing the MMP-2 and MMP-9 mRNA fold change in the cells treated as described in FIG. 13A, as determined by qPCR. *: Statistical significance (p<0.05).
Total cellular RNA was extracted using an RNAeasy kit (Qiagen, Germany) as described previously (8,9). All Taqman probes used in this study were obtained from Applied Biosystems (Applied Biosystems, Foster City, CA). Real time PCR was performed using an ABI ViiA7 fast real-time PCR system (Applied Biosystems, Foster City, CA).
(In qPCR the cycle at which signal appears reflects the starting amount.)

Another experiment has as its system B16 lung metastases. The experiment can be described thus: B16 lung metastasis model in C57BL/6 mice. In kind it is in vivo, mouse. The settings on record: 30 mg/kg I.P., 3× per week, 6 injections. As for the experimental part: FIG. 6A is a series of images of B16 lung metastases in C57BL/6 mice treated with DMSO vehicle, PDZ1i, or IVMT-Rx-3 (intraperitoneal injection of 30 mg/kg, 3×/week, 6 injections total). 1×10^5 B16 cells were injected intravenously in C57BL/6 mice (n=7, per group) prior to treatment.
FIG. 6B is a series of histograms showing the number of nodules/lung, T cell populations (CD8^+IFN-γ^+) and myeloid-derived suppressor cells (MDSCs) in the lungs of the treatment groups described in FIG. 6A, as measured by flow cytometry. *: Statistical significance (p<0.05);**: Statistical significance (p<0.01);***: Statistical significance (p<0.001). ****: Statistical significance (p<0.0001).
All animal experiments were performed according to guidelines established by VCU IACUC. Immune competent mice (6-week-old male C57BL/6) were used in this study for determining the anti-metastatic efficiency of IVMT-Rx-3. Mice were purchased from Jackson Laboratories and after one-week in barrier facilities, experiments were performed. To establish lung metastases, murine B16 (1×10^5 cells/0.1 ml PBS) were injected via tail vein in C57BL/6 mice (18). Test chemical (IVMT-Rx-3) was administrated at 30 mg/kg body weight three times a week I.P. for the first two weeks (six injections, C57BL/6 study). DMSO was used as control. Anti-PD-L1 antibody and control antibodies for therapeutic injections were purchased from Bio X Cell (West Lebanon, NH, USA).
1×10^5 B16 cells were injected intravenously in C57BL/6 mice and treated with IVMT-Rx-3 (intraperitoneal injection 30 mg/kg, 3× in a week, 6 injections in total). 100 μg of Anti-PD-L1 antibody was injected through the I/P (intraperitoneal) route (3 times a week, over a 2-week period). A set of 20 animals were first injected with B16 cells (1×10^5 cells/mouse) and randomly divided into four groups (n=5) for survival studies. As stated in the above-mentioned lung metastasis protocol, mice received 6 doses of control vehicle or IVMT-Rx-3 either alone or in combination with anti-PD-L1 over the first two weeks. […]

Regarding `Cc1cc(NC(=O)c2nc3[nH]c4c(c(=O)n3n2)CCC4)c(C)cc1NC(=O)CCOCCC(=O)N[C@H](C(=O)N[C@@H](CC(N)=O)C(=O)N[C@@H](CCC(=O)O)C(=O)N[C@@H](Cc1ccc(O)cc1)C(=O)N[C@@H](Cc1ccc(O)cc1)C(=O)N[C@H](C(=O)O)C(C)C)[C@@H](C)O` [IVMT-Rx-3] (HELM PEPTIDE1{[Cc1cc(NC(=O)c2nc3[nH]c4c(c(=O)n3n2)CCC4)c(C)cc1NC(=O)CCOCCC(=O)[*:2]].T.N.E.Y.Y.V}$$$$V2.0), the Kd on MDA-9/Syntenin stood at 63 µM. The “binding to X11/mint scaffold protein” value in experiment [1] is listed as “did not bind appreciably”. In addition, in experiment [2], the “inactivation of MDA-9/Syntenin: Src associated signaling pathways” value is given as “inactivation of various signaling pathways”. For the same compound, in the experiment with MMP-2 and MMP-9, the “expression of MMP-2 and MMP-9” value was “lower expression of MMP-2 and MMP-9”. For the same compound, the “efficacy against lung metastases compared with PDZ1i” value with B16 lung metastases was “significantly higher compared with PDZ1i”. Further, in the experiment on B16 lung metastases (single agent), the “lung metastasis (combination experiment)” value was “markedly reduced lung metastasis”. Moreover, the “number of lung nodules” value with B16 lung metastases (vs vehicle) was “significantly reduced the number of lung nodules”.
